In patent US20260347403A1, “FUNGICIDAL COMPOUND” (priority 2022, published 2026):
Numbered stars: 1 amine (or outer) side, 2 acyl side, 3 side chain; on linkers, the order of the positions; unused ones are H or OH. Bridge positions count the residues as written; N and C are the ends. Square brackets hold non-standard residues; d marks the D form. Peptide text beside a SMILES is read from it. * marks the point of attachment. X4 = NC(=O)C[C@@H](O)[C@@H](N[*:1])C(=O)[*:2]; d(aThr) = C[C@@H](O)[C@@H](N)C(=O)O; NMeF = CN[C@@H](Cc1ccccc1)C(=O)O; X3 = CC[C@@H](C)CCCCCCCCCCC(=O)*; dNMeN = CN[C@H](CC(N)=O)C(=O)O

Experiments:
[1] = system: ROS production induced by flg22; assay: Reactive Oxygen Species (ROS) burst assay with wheat leaf discs; details: Triticum aestivum, foliar, read-out: Fold change (peak ROS)
[2] = system: Puccinia recondita f. sp. tritici; assay: Leaf disc/segment test on wheat, Puccinia recondita f. sp. tritici (Brown Rust), 7-9 days after application; format: in vivo; details: Table 5
Protocol: (§1) Leaf disks or leaf segments of various plant species were cut from plants grown in the greenhouse. The cut leaf disks, or segments were placed in multiwell plates (24-well format) onto water agar. The leaf disks were sprayed with a test solution before inoculation with the fungal spores. Compounds to be tested were prepared as DMSO solutions (max. 10 mg/ml) which were diluted to the appropriate concentration with water plus 0.025% Tween® 20 just before spraying. The inoculated leaf disks or segments were incubated under defined conditions (temperature, relative humidity, light, etc.) according to the respective test system. A single evaluation of disease level was carried out by visual evaluation 3-9 days days after inoculation, depending on the pathosystem as indicated below. Percent disease control relative to the untreated check leaf disks or segments was then calculated.
Puccinia recondita f. Sp. Tritici/Wheat/Leaf Disc (Brown Rust)
Wheat leaf segments cv. Kanzler were placed on agar in multiwell plates (24-well format) and sprayed with the formulated test compound diluted in water. The leaf disks were inoculated with a spore suspension of the fungus 1 day after application. The inoculated leaf segments were incubated at 19 °C and 75% rh under a light regime of 12 h light/12 h darkness in a climate cabinet and the activity of a compound was assessed as percent disease control compared to untreated when an appropriate level of disease damage appears in untreated check leaf segments (7-9 days after application).

Phaeosphaeria nodorum = assay: Leaf disc test on wheat, Phaeosphaeria nodorum (Glume Blotch), 5-7 days after application; format: in vivo, Phaeosphaeria nodorum (Septoria nodorum) on wheat; details: Table 5
Protocol: as §1
Phaeosphaeria Nodorum (Septoria nodorum)/Wheat/Leaf Disc (Glume Blotch)
Wheat leaf segments cv. Kanzler were placed on agar in a multiwell plate (24-well format) and sprayed with the formulated test compound diluted in water. The leaf disks were inoculated with a spore suspension of the fungus 2 days after application. The inoculated test leaf disks were incubated at 20 °C and 75% rh under a light regime of 12 h light/12 h darkness in a climate cabinet and the activity of a compound was assessed as percent disease control compared to untreated when an appropriate level of disease damage appears in untreated check leaf disks (5-7 days after application)

Mycosphaerella arachidis = assay: Liquid culture, Mycosphaerella arachidis (Cercospora arachidicola), early leaf spot, 4-5 days; format: cell-based; details: Table 3
Protocol: (§2) Mycelia fragments or conidia suspensions of a fungus, prepared either freshly from liquid cultures of the fungus or from cryogenic storage, were directly mixed into nutrient broth.
(§3) A stock solution for compound of Formula I(a) and Formula I(b) was produced in DMSO (max. 10 mg/ml), which was diluted with water plus 0.025% Tween®20 to produce a 10× concentrated sample and 10 μl of this solution was pipetted into a microtiter plate (96-well format). The nutrient broth containing the fungal spores/mycelia fragments was then added to give an end concentration of the tested compound. The test plates were incubated in the dark at 24 °C and 96% rh. The inhibition of fungal growth was determined photometrically after 2-7 days, depending on the pathosystem, and percent antifungal activity relative to the untreated check was calculated.
(§4) The effect of the test compound (Formula I(a), I(b) and Lipopeptin A) was tested against the following fungi under the conditions as outlined above and specifically herein below:
Mycosphaerella arachidis (Cercospora arachidicola)/liquid culture (early leaf spot) Conidia of the fungus from cryogenic storage were directly mixed into nutrient broth (PDB potato dextrose broth). The inhibition of growth was determined photometrically 4-5 days after application.

Botryotinia fuckeliana = assay: Liquid culture, Botryotinia fuckeliana (Botrytis cinerea), Gray Mould, 3-4 days; format: cell-based; details: Table 3
Protocol: as §2, §3, §4
Botryotinia fuckeliana (Botrytis cinerea)/Liquid Culture (Gray Mould)
Conidia of the fungus from cryogenic storage were directly mixed into nutrient broth (Vogels broth). The inhibition of growth is determined photometrically 3-4 days after application.

Pyrenophora teres = assay: Leaf disc preventative test on barley, Pyrenophora teres (Net Blotch), 5-7 days after application; format: in vivo; details: Table 5
Protocol: as §1
Pyrenophora teres/Barley/Leaf Disc Preventative (Net Blotch)
Barley leaf segments cv. Hasso were placed on agar in a multiwell plate (24-well format) and sprayed with the formulated test compound diluted in water. The leaf segments were inoculated with a spore suspension of the fungus 2 days after application. The inoculated leaf segments were incubated at 20 °C and 65% rh under a light regime of 12 h light/12 h darkness in a climate cabinet and the activity of a compound was assessed as disease control compared to untreated when an appropriate level of disease damage appears in untreated check leaf segments (5-7 days after application).

several fungal species = assay: Leaf disc or leaf segment tests, summary over the fungi tested; format: in vivo; details: Tables 4 and 5; relative to the other compounds
Protocol: as §1

Zymoseptoria tritici = assay: Liquid culture, Zymoseptoria tritici (Septoria tritici), Septoria leaf blotch, 4-5 days; format: cell-based; details: Table 3
Protocol: as §2, §3, §4
Zymoseptoria tritici (Septoria tritici)/liquid culture (Septoria leaf blotch) Conidia of the fungus from cryogenic storage were directly mixed into nutrient broth (PDB potato dextrose broth). The inhibition of growth was determined photometrically 4-5 days after application.

Glomerella lagenarium = assay: Liquid culture, Glomerella lagenarium (Colletotrichum lagenarium), Anthracnose, 3-4 days; format: cell-based; details: Table 3
Protocol: as §2, §3, §4
Glomerella lagenarium (Colletotrichum lagenarium)/Liquid Culture (Anthracnose)
Conidia of the fungus from cryogenic storage were directly mixed into nutrient broth (PDB potato dextrose broth). The inhibition of growth was measured photometrically 3-4 days after application.

[3] = system: several phytopathogenic fungi; assay: Liquid culture assays, summary over the fungi tested; format: cell-based; details: Tables 2 and 3; relative to the other compounds
Protocol: as §2, §3
The effect of the test compound (Formula I(a), I(b) and Lipopeptin A) was tested against the following fungi under the conditions as outlined above and specifically herein below: […]

O=C(O)c1cc(Cl)nc(Cl)c1 [INA, 2.6-dichloro-isonicotinic acid, reference compound]
fold induction at 100 ppm [1]: 1.8

CC[C@@H](C)CCCCCCCCCCC(=O)N[C@H]1C(=O)N[C@@H](CC(=O)O)C(=O)N[C@H](CO)C(=O)N[C@@H](CO)C(=O)N(C)[C@H](CC(N)=O)C(=O)N(C)[C@@H](Cc2ccccc2)C(=O)N[C@H]([C@H](O)CC(N)=O)C(=O)N[C@H](CCC(=O)O)C(=O)O[C@@H]1C [Lipopeptin A, reference compound] (X3-[d(aThr)]D[dS]S[dNMeN][NMeF][X4][dE]; ester 1-C)
% reduction of fungal growth ([2]; 0.82 ppm): 0%
% reduction of fungal growth ([2]; 2.5 ppm): 0%
% reduction of fungal growth ([2]; 7.4 ppm): 0%
% reduction of fungal growth ([2]; 22 ppm): 0%
% reduction of fungal growth ([2]; 67 ppm): 0%
% reduction of fungal growth ([2]; 200 ppm): 35%
% reduction of fungal growth (Phaeosphaeria nodorum; 0.82 ppm): 0%
% reduction of fungal growth (Phaeosphaeria nodorum; 2.5 ppm): 0%
% reduction of fungal growth (Phaeosphaeria nodorum; 7.4 ppm): 0%
% reduction of fungal growth (Phaeosphaeria nodorum; 22 ppm): 0%
% reduction of fungal growth (Phaeosphaeria nodorum; 67 ppm): 0%
% reduction of fungal growth (Phaeosphaeria nodorum; 200 ppm): 0%
% reduction fungal growth (Mycosphaerella arachidis; 0.41 ppm): 0%
% reduction fungal growth (Mycosphaerella arachidis; 1.2 ppm): 0%
% reduction fungal growth (Mycosphaerella arachidis; 3.7 ppm): 0%
% reduction fungal growth (Mycosphaerella arachidis; 11 ppm): 0%
% reduction fungal growth (Mycosphaerella arachidis; 33 ppm): 0%
% reduction fungal growth (Mycosphaerella arachidis; 100 ppm): 0%
% reduction fungal growth (Botryotinia fuckeliana; 0.41 ppm): 0%
% reduction fungal growth (Botryotinia fuckeliana; 1.2 ppm): 0%
% reduction fungal growth (Botryotinia fuckeliana; 3.7 ppm): 0%
% reduction fungal growth (Botryotinia fuckeliana; 11 ppm): 0%
% reduction fungal growth (Botryotinia fuckeliana; 33 ppm): 0%
% reduction fungal growth (Botryotinia fuckeliana; 100 ppm): 0%
% reduction of fungal growth (Pyrenophora teres; 0.82 ppm): 0%
% reduction of fungal growth (Pyrenophora teres; 2.5 ppm): 0%
% reduction of fungal growth (Pyrenophora teres; 7.4 ppm): 0%
% reduction of fungal growth (Pyrenophora teres; 22 ppm): 0%
% reduction of fungal growth (Pyrenophora teres; 67 ppm): 0%
% reduction of fungal growth (Pyrenophora teres; 200 ppm): 0%
activity on leaf discs in words (several fungal species): less active
% reduction fungal growth (Zymoseptoria tritici; 0.41 ppm): 0%
% reduction fungal growth (Zymoseptoria tritici; 1.2 ppm): 0%
% reduction fungal growth (Zymoseptoria tritici; 3.7 ppm): 0%
% reduction fungal growth (Zymoseptoria tritici; 11 ppm): 0%
% reduction fungal growth (Zymoseptoria tritici; 33 ppm): 0%
% reduction fungal growth (Zymoseptoria tritici; 100 ppm): 70%
% reduction fungal growth (Glomerella lagenarium; 0.41 ppm): 0%
% reduction fungal growth (Glomerella lagenarium; 1.2 ppm): 0%
% reduction fungal growth (Glomerella lagenarium; 3.7 ppm): 0%
% reduction fungal growth (Glomerella lagenarium; 11 ppm): 0%
% reduction fungal growth (Glomerella lagenarium; 33 ppm): 0%
% reduction fungal growth (Glomerella lagenarium; 100 ppm): 0%
activity in liquid culture in words [3]: less active
